# Experimental data taken from publication PMC8840081, “Phenylalanine-Based AMPA Receptor Antagonist as the Anticonvulsant Agent with Neuroprotective Activity—In Vitro and In Vivo Studies” (Molecules, 2022).
# Experiments:
# [1] = tested on: PTZ-induced clonic seizures in mice; assay: PTZ seizure test; format: in vivo; settings: PTZ 100 mg/kg s.c.; compound 100 mg/kg i.p.
# Method: (§1) Behavioral experiments were carried out in male Albino Swiss (CD-1) mice weighing 18–22 g. The mice were kept in cages, in groups of 10 animals. They had free access to food and water before experiments, and were maintained at room temperature 22–24 °C, under 12:12 (light/dark) cycle. For the assays the animals were selected randomly. After the experiments the animals were euthanized by cervical dislocation. Experimental procedures for in vivo tests were approved by the Local Ethics Committee of the Jagiellonian University in Krakow (Approval No. 33/2018; release date: 1.02.2018) and the treatment of animals was performed in full accordance with ethical standards laid down in respective Polish and EU regulations (Directive 2010/63/EU).
# Oxaliplatin was purchased from Activate Scientific GmbH (Prien, Germany). PTZ and STZ were provided by Merck KGaA (Darmstadt, Germany). For the in vivo tests, the compound 1 was suspended in 1% Tween 80 solution (Polskie Odczynniki Chemiczne, Gliwice, Poland), then being administered intraperitoneally 1 h before tests. […]
# This test was carried out according to the method recently described. […] In this assay the latency to the occurrence of the first clonic seizure episode was measured and compared in drug-treated and control mice. […] The number of seizure episodes was also recorded in each group. • 6-Hz Test
# [2] = oxygen radical absorbance capacity fluorescent (ORAC-FL) assay; settings: Trolox equivalent, calculated at 5 µM of compounds and Trolox
# Method: The ORAC-FL was performed according to procedure described in the literature. The reagents used in this assay, TX, fluorescein and 2,2′-azobis(2-amidinopropane) dihydrochloride (AAPH), were purchased from Sigma-Aldrich, Inc., St. Louis, MO, USA. The prepared ORAC-FL reagent consisted of 0.3 μM of fluorescein and 100 µM of AAPH dissolved in PBS buffer. The compounds and the reference antioxidant TX were tested at the concentration 2.5 µM and the results were compared to the blank in which no antioxidant was present. The assays were performed in black 96-well plates. The fluorescence readings were taken by a microplate reader EnSpire (PerkinElmer, Waltham, MA, USA) every minute for a duration of 240 min. The excitation wavelength was 485 nm and the emission wavelength was 520 nm. The area under the fluorescence decay curve (AUC) was calculated next by GraphPad Prism™ software (version 5.01, San Diego, CA, USA). All measurements were performed in triplicate. The TX equivalent (TE) was calculated next using the following Equation (1):TE = [(AUCsample − AUCblank)/(AUCTX − AUCblank)] × [CTX/Csample](1)
# [3] = tested on: IMR-32 neuroblastoma cells; assay: cell viability, MTS assay; format: cell-based, human; settings: IMR-32, 24 h incubation, 1–100 µM
# Method: (§2) All cell culture protocols and assay conditions were applied as we reported previously. SH-SY5Y (ATCC® CRL-2266™) cell line was purchased from ATCC (Manassas, VA, USA). IMR-32 (ATCC® CCL-127™) cell line was kindly provided by the Department of Oncogenomics, Academisch Medisch Centrum, Amsterdam, Holland. Before each test SH-SY5Y or IMR-32 cells were seeded in 96-well plates with transparent bottom at a concentration of 2.5 × 10^4 cells/well in 100 μL of respective cell culture medium and cultured for 24 h to reach 70% confluence. • Cell Viability
# (§3) The CellTiter 96® AQueous Non-Radioactive Cell Proliferation Assay was purchased from Promega (Madison, WI, USA). After 24 h of cells incubation with compound 1 or 8 in the concentrations range 1–100 µM the MTS-based labeling mixture was added to each well and cells were incubated under the same conditions for 2–3 h. The absorbance was measured using a microplate reader EnSpire (PerkinElmer, Waltham, MA, USA) at 490 nm. All measurements were performed in triplicate and results are shown as mean ± SD. • Lactate Dehydrogenase Test
# [4] = tested on: SH-SY5Y neuroblastoma cells; assay: cell viability, MTS assay; format: cell-based, human; settings: 24 h incubation, 1–100 µM
# Method: as §2, §3
# [5] = tested on: cold hyperalgesia in oxaliplatin-treated mice; assay: oxaliplatin-induced neuropathic pain model, cold plate test; format: in vivo; settings: 10 and 30 mg/kg i.p., early and late phase
# Method: as §1
# (§4) Oxaliplatin was purchased from Activate Scientific GmbH (Prien, Germany). PTZ and STZ were provided by Merck KGaA (Darmstadt, Germany). For the in vivo tests, the compound 1 was suspended in 1% Tween 80 solution (Polskie Odczynniki Chemiczne, Gliwice, Poland), then being administered intraperitoneally 1 h before tests. For the evaluation of anticonvulsant properties of the test compound, a fixed dose of 100 mg/kg, was used. Since many AEDs at lower doses are used as analgesic drugs, for pain tests the doses 10 and 30 mg/kg were selected. […]
# The effect of 1 on cold pain threshold was assessed using the cold plate test. […]
# [6] = tested on: tactile allodynia in oxaliplatin-treated mice; assay: oxaliplatin-induced neuropathic pain model, von Frey test; format: in vivo; settings: 10 and 30 mg/kg i.p., early and late phase
# Method: as §1, §4
# SH-SY5Y cells = assay: ROS assay (DCFH-DA), H2O2-induced ROS accumulation; format: cell-based, human; settings: compound 50 µM, 500 µM H2O2, 3 h
# Method: as §2
# During this assay SH-SY5Y cells were preincubated first for 1 h with 250 μM solution of DCFH-DA (Sigma-Aldrich, Inc., St. Louis, MO, USA) in HBSS buffer. After DCFH-DA was removed, cells were washed with HBSS and incubated next for 1 h with 50 μM of compound 1 or 8. Next, the H2O2 was added at final concentration 500 μM. After 3 h of incubation, the fluorescence was measured using a microplate reader EnSpire (PerkinElmer, Waltham, MA, USA) with an excitation wavelength of 486 nm and emission wavelength of 530 nm. All measurements were performed in triplicate and results are shown as mean ± SD.
smiles,measurement,setting,value
NC(Cc1cc(-c2cc(O)ccc2O)c(Cl)c([N+](=O)[O-])c1)C(=O)O (centres unmarked) [Compound 1],latency to first clonus,[1],not able to prolong latency to the first clonus
same,number of seizure episodes,[1],remained unaffected
same,ORAC (TE),[2],3.46 TE
same,cell viability,[3],no influence on cell viability
same,cell viability,[4],no influence on cell viability
same,"effect on cold hyperalgesia, cold plate test",[5],unable to attenuate cold hyperalgesia
same,"effect on tactile allodynia, von Frey test",[6],not effective
same,intracellular ROS level,SH-SY5Y cells,statistically significant decrease
